Experimental findings from ChEMBL document CHEMBL4334505, “Tri- and Diterpenoids from Stillingia loranthacea as Inhibitors of Zika Virus Replication” (J Nat Prod, 2019) are described below.

Each structure is given as a SMILES string. Activity calls are given as the source filed them. No cut-off for these calls is given here.

Series [1] relates to Zika virus. Kind of series: Antiviral activity against Zika virus PE243 infected in African green monkey Vero cells assessed as reduction in viral replication by measuring viral titer per ml of cells at CC20 incubated for 5 days by standard TCID50 method (reference value: 6.7). It counts as functional.
Series [2] in a line: (§1) Cytotoxicity against African green monkey Vero cells assessed as reduction in cell viability measured after 120 hrs by MTT assay. It counts as cell-based. The following applies: chlorocebus sabaeus, Vero cells.
In series [3] the test system is Vero. Described as §1. The following applies: chlorocebus sabaeus, vero, 120 h. The series is classed as cell-based.
Series [4] in a line: (§2) Cytotoxicity against African green monkey Vero cells assessed as reduction in cell viability measured after 1 hr by MTT assay. It counts as cell-based. The conditions noted are these: chlorocebus sabaeus, Vero cells.
For series [5], the system named is Vero. Described as §2. It counts as cell-based. The following applies: chlorocebus sabaeus, vero, 1 h.
Series [6] relates to Zika virus. Kind of series: Antiviral activity against Zika virus PE243 infected in African green monkey Vero cells assessed as reduction in viral replication by measuring viral titer at CC20 incubated for 5 days by standard TCID50 method. It counts as functional, organism-based.

In the case of `CSc1ncnc2c1ncn2[C@@H]1O[C@H](CO)[C@@H](O)[C@H]1O`, the “log10 TCID50” value in the series with Zika virus [1] stood at 5.4. The CC50 at 120 h in series [2] was found to be 291 µM. The CC20 in the series on Vero [3] was 60.5 µM.
Consider `CCCCCCCCCCCC(=O)O[C@@]12C[C@@H](C)[C@@]3(O)[C@@H](C=C(CO)C[C@]4(O)C(=O)C(C)=C[C@@H]34)[C@@H]1C2(C)C`, for which the CC50 at 1 h in series [4] is 24.6 to 848 µM. Moreover, the CC20 with Vero [5] lay in the range of 8.7 to 328 µM. Also, the inhibition entry in the series on Zika virus [6] was “Active”.
Take `CC(=O)O[C@H](C)/C(C)=C/C(=O)O[C@@H]1[C@H](C)C[C@H]2O[C@]1(O)[C@@H](O)[C@@]1(C)CC[C@H](O1)C(C)(C)/C=C/[C@H](C)C2=O`: the CC20 with Vero [5] fell in the range of 8.7 to 328 µM.
`CC/C(C)=C/C(=O)O[C@@H]1[C@H](C)C[C@H]2O[C@]1(O)[C@@H](O)[C@@]1(C)CC[C@H](O1)C(C)(C)/C=C/[C@H](C)C2=O`: the CC20 in the series on Vero [5] is 8.7 to 328 µM.
For the compound `CC1(C)CC[C@@H]2C(=O)C=C3[C@]4(C)CC[C@@H]5[C@](C)(CC[C@@H](OC(=O)c6ccccc6)[C@@]5(C)C(=O)O)[C@H]4CC[C@@]3(C)[C@@H]2C1`, in series [4], the CC50 at 1 h lay within 24.6 to 848 µM. The CC20 with Vero [5] fell in the range of 8.7 to 328 µM.
As for `CCCCCCCCCCCCCCCC(=O)O[C@@H]1[C@@H](C)[C@]2(O)[C@@H]3C=C(C)C(=O)[C@@H]3CC(CO)=C[C@H]2[C@@H]2C(C)(C)[C@]12OC(C)=O`, in series [4], the CC50 at 1 h fell in the range of 24.6 to 848 µM. In addition, the CC20 with Vero [5] fell in the range of 8.7 to 328 µM. Besides, the inhibition entry in the series with Zika virus [6] is “Active”.
As for `CCCCCCCC/C=C\CCCC(=O)O[C@@]12C[C@@H](C)[C@@]3(O)[C@@H](C=C(C=O)C[C@]4(O)C(=O)C(C)=C[C@@H]34)[C@@H]1C2(C)C`, the CC50 at 1 h in series [4] lay in the range of 24.6 to 848 µM. For the same compound, the CC20 in the series on Vero [5] lay within 8.7 to 328 µM.
As to `CC1(C)CC[C@@H]2C(=O)C=C3[C@]4(C)CC[C@@H]5[C@](C)(CC[C@@H](OC(=O)/C=C/c6ccccc6)[C@@]5(C)C(=O)O)[C@H]4CC[C@@]3(C)[C@@H]2C1`, in series [4], the CC50 at 1 h was 24.6 to 848 µM. The CC20 in the series with Vero [5] lay within 8.7 to 328 µM. The “log10 TCID50” value in the series with Zika virus [1] is 1.7. Further, the inhibition result in the series on Zika virus [6] is “Active”.
With `CCCCCCCC/C=C\CCCC(=O)O[C@@]12C[C@@H](C)[C@@]3(O)[C@@H](C=C(CO)C[C@]4(O)C(=O)C(C)=C[C@@H]34)[C@@H]1C2(C)C`, the CC50 at 1 h in series [4] lay in the range of 24.6 to 848 µM. Moreover, the CC20 in the series with Vero [5] lay within 8.7 to 328 µM. In addition, in the series on Zika virus [1], the “log10 TCID50” value is given as 1.8. Further, the inhibition entry with Zika virus [6] was “Active”.
In the case of `C/C(=C\C(=O)O[C@@H]1[C@H](C)C[C@H]2O[C@]1(O)[C@@H](O)[C@@]1(C)CC[C@H](O1)C(C)(C)/C=C/[C@H](C)C2=O)C(C)O` (stereo partly specified), the CC20 in the series on Vero [5] was in the range of 8.7 to 328 µM.
Consider `CCCCCCCCCCCCCC(=O)O[C@@]12C[C@@H](C)[C@@]3(O)[C@@H](C=C(CO)C[C@]4(O)C(=O)C(C)=C[C@@H]34)[C@@H]1C2(C)C`, for which the CC50 at 1 h in series [4] lay in the range of 24.6 to 848 µM. For the same compound, in the series with Vero [5], the CC20 was 8.7 to 328 µM. In the series with Zika virus [6], the inhibition entry was “Active”.
Turning to `CCCCCCCCCCCCCCCC(=O)O[C@@H]1[C@@H](C)[C@]2(O)[C@@H]3C=C(C)C(=O)[C@@H]3CC(C=O)=C[C@H]2[C@@H]2C(C)(C)[C@]12OC(C)=O`, the CC50 at 1 h in series [4] lay within 24.6 to 848 µM. In the series with Vero [5], the CC20 was in the range of 8.7 to 328 µM.
For `CCCCCCCCCCCC(=O)O[C@@]12C[C@@H](C)[C@@]3(O)[C@@H](C=C(C=O)C[C@]4(O)C(=O)C(C)=C[C@@H]34)[C@@H]1C2(C)C` the same measures were 24.6 to 848 µM and 8.7 to 328 µM.
